Values of other authors in patent US10583101B2 (EMCURE PHARMACEUTICALS LIMITED, priority 2016, dated 2020).

O=NN(CCCl)C(=O)NCCCl [Carmustine, 1,3-bis (2-chloroethyl)-1-nitrosourea]
solubility in alcohol and lipids (alcohol and lipids): highly soluble in alcohol and lipids | solubility in water (water): poorly soluble in water
